Results as given in ChEMBL document CHEMBL4507275, “Data for DCP probe BI-2545” (2021).

Columns and labels:
[1] = test system: Tyrosine-protein kinase ABL1 (Homo sapiens), P00519 [M351T]; settings: Compound concentration 1000.0 nM
[2] = target: Cyclin-dependent kinase 4 (Homo sapiens) (UniProt P11802); settings: Compound concentration 1000.0 nM
[3] = target: Casein kinase I isoform delta (Homo sapiens) (UniProt P48730); settings: Compound concentration 1000.0 nM
[4] = target: 5-hydroxytryptamine receptor 1E (Homo sapiens) (UniProt P28566); settings: Compound concentration 10.0 uM
[5] = target: Mitogen-activated protein kinase kinase kinase kinase 3 (Homo sapiens) (UniProt Q8IVH8); settings: Compound concentration 1000.0 nM
[6] = target: Receptor-interacting serine/threonine-protein kinase 1 (Homo sapiens) (UniProt Q13546); settings: Compound concentration 1000.0 nM
[7] = target: D(4) dopamine receptor (Homo sapiens) (UniProt P21917); settings: Compound concentration 10.0 uM
[8] = target: Cyclin-dependent kinase 5 (Homo sapiens) (UniProt Q00535); settings: Compound concentration 1000.0 nM
[9] = target: Death-associated protein kinase 2 (Homo sapiens) (UniProt Q9UIK4); settings: Compound concentration 1000.0 nM
[10] = target: Tyrosine-protein kinase Blk (Homo sapiens) (UniProt P51451); settings: Compound concentration 1000.0 nM
[11] = test system: Phosphatidylinositol 4,5-bisphosphate 3-kinase catalytic subunit alpha isoform (Homo sapiens), P42336 [C420R]; settings: Compound concentration 1000.0 nM
[12] = target: SRSF protein kinase 3 (Homo sapiens) (UniProt Q9UPE1); settings: Compound concentration 1000.0 nM
[13] = target: Mitogen-activated protein kinase 10 (Homo sapiens) (UniProt P53779); settings: Compound concentration 1000.0 nM
[14] = target: Serine/threonine-protein kinase Nek4 (Homo sapiens) (UniProt P51957); settings: Compound concentration 1000.0 nM
[15] = target: Serine/threonine-protein kinase/endoribonuclease IRE1 (Homo sapiens) (UniProt O75460); settings: Compound concentration 1000.0 nM
[16] = target: Serine/threonine-protein kinase 3 (Homo sapiens) (UniProt Q13188); settings: Compound concentration 1000.0 nM
[17] = target: Mitogen-activated protein kinase kinase kinase 6 (Homo sapiens) (UniProt O95382); settings: Compound concentration 1000.0 nM
[18] = test system: Receptor-type tyrosine-protein kinase FLT3 (Homo sapiens), P36888 [N841I]; settings: Compound concentration 1000.0 nM
[19] = target: Cyclin-dependent kinase 13 (Homo sapiens) (UniProt Q14004); settings: Compound concentration 1000.0 nM
[20] = target: Rho-associated protein kinase 2 (Homo sapiens) (UniProt O75116); settings: Compound concentration 1000.0 nM
[21] = target: Serine/threonine-protein kinase 32B (Homo sapiens) (UniProt Q9NY57); settings: Compound concentration 1000.0 nM
[22] = target: Serine/threonine-protein kinase Nek9 (Homo sapiens) (UniProt Q8TD19); settings: Compound concentration 1000.0 nM
[23] = target: Tyrosine-protein kinase FRK (Homo sapiens) (UniProt P42685); settings: Compound concentration 1000.0 nM
[24] = test system: Receptor-type tyrosine-protein kinase FLT3 (Homo sapiens), P36888 [UNDEFINED MUTATION]; settings: Compound concentration 1000.0 nM
[25] = target: Serine/threonine-protein kinase 24 (Homo sapiens) (UniProt Q9Y6E0); settings: Compound concentration 1000.0 nM
[26] = target: Peripheral plasma membrane protein CASK (Homo sapiens) (UniProt O14936); settings: Compound concentration 1000.0 nM
[27] = target: Mitogen-activated protein kinase 4 (Homo sapiens) (UniProt P31152); settings: Compound concentration 1000.0 nM
[28] = target: cAMP-dependent protein kinase catalytic subunit alpha (Homo sapiens) (UniProt P17612); settings: Compound concentration 1000.0 nM
[29] = target: Mitogen-activated protein kinase 15 (Homo sapiens) (UniProt Q8TD08); settings: Compound concentration 1000.0 nM
[30] = target: Serine/threonine-protein kinase TNNI3K (Homo sapiens) (UniProt Q59H18); settings: Compound concentration 1000.0 nM
[31] = target: 5-hydroxytryptamine receptor 7 (Homo sapiens) (UniProt P34969); settings: Compound concentration 10.0 uM
[32] = target: 5-hydroxytryptamine receptor 2A (Homo sapiens, UniProt P28223); settings: Compound concentration 10.0 uM
[33] = target: Serine/threonine-protein kinase LATS1 (Homo sapiens) (UniProt O95835); settings: Compound concentration 1000.0 nM
[34] = target: Tyrosine-protein kinase Yes (Homo sapiens) (UniProt P07947); settings: Compound concentration 1000.0 nM
[35] = target: Serine/threonine-protein kinase pim-3 (Homo sapiens) (UniProt Q86V86); settings: Compound concentration 1000.0 nM
[36] = target: Beta-1 adrenergic receptor (Homo sapiens) (UniProt P08588); settings: Compound concentration 10.0 uM
[37] = target: Rhodopsin kinase GRK7 (Homo sapiens) (UniProt Q8WTQ7); settings: Compound concentration 1000.0 nM
[38] = target: Serine/threonine-protein kinase Nek1 (Homo sapiens) (UniProt Q96PY6); settings: Compound concentration 1000.0 nM
[39] = target: cAMP-dependent protein kinase catalytic subunit beta (Homo sapiens) (UniProt P22694); settings: Compound concentration 1000.0 nM
[40] = target: RAC-beta serine/threonine-protein kinase (Homo sapiens) (UniProt P31751); settings: Compound concentration 1000.0 nM
[41] = target: Interleukin-1 receptor-associated kinase 1 (Homo sapiens) (UniProt P51617); settings: Compound concentration 1000.0 nM
[42] = target: Activin receptor type-2B (Homo sapiens) (UniProt Q13705); settings: Compound concentration 1000.0 nM
[43] = target: Serine/threonine-protein kinase Sgk2 (Homo sapiens) (UniProt Q9HBY8); settings: Compound concentration 1000.0 nM
[44] = target: Ribosomal protein S6 kinase beta-1 (Homo sapiens) (UniProt P23443); settings: Compound concentration 1000.0 nM
[45] = target: Sodium-dependent noradrenaline transporter (Homo sapiens) (UniProt P23975); settings: Compound concentration 10.0 uM

Sequence of Mitogen-activated protein kinase kinase kinase 6 (Homo sapiens) (O95382 whole entry): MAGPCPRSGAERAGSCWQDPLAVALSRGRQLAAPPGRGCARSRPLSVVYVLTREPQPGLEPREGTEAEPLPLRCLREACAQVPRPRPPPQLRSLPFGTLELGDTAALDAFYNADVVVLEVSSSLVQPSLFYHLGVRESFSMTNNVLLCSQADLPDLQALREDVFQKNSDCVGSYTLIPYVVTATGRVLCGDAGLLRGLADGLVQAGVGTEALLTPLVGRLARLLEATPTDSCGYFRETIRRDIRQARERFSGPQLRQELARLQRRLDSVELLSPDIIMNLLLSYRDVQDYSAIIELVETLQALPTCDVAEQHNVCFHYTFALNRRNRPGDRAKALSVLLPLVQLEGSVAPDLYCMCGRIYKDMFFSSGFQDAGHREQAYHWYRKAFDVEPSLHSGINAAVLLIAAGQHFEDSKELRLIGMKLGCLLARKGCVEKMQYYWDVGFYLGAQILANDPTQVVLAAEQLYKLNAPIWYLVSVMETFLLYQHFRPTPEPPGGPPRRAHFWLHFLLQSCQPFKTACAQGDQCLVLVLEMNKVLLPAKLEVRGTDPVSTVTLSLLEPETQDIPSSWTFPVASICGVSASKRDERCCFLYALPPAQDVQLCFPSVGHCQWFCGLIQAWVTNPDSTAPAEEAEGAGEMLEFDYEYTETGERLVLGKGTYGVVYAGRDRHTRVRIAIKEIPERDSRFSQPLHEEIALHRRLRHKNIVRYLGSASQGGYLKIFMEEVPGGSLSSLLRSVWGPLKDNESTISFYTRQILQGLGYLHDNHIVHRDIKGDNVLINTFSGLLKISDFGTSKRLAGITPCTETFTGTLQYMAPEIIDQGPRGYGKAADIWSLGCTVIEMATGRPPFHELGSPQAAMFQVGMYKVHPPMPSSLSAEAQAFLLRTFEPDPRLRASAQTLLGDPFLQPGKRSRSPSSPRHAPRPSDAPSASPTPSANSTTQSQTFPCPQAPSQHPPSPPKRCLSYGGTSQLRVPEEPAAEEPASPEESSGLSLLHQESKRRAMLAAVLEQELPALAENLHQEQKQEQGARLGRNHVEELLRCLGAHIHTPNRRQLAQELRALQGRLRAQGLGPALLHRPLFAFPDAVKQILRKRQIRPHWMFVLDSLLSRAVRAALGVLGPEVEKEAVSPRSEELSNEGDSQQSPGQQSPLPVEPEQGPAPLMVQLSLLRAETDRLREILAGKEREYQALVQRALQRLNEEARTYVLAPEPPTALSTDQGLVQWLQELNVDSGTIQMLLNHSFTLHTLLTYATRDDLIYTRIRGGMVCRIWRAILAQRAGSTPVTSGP
Sequence of Interleukin-1 receptor-associated kinase 1 (Homo sapiens) (P51617 whole entry, looked up): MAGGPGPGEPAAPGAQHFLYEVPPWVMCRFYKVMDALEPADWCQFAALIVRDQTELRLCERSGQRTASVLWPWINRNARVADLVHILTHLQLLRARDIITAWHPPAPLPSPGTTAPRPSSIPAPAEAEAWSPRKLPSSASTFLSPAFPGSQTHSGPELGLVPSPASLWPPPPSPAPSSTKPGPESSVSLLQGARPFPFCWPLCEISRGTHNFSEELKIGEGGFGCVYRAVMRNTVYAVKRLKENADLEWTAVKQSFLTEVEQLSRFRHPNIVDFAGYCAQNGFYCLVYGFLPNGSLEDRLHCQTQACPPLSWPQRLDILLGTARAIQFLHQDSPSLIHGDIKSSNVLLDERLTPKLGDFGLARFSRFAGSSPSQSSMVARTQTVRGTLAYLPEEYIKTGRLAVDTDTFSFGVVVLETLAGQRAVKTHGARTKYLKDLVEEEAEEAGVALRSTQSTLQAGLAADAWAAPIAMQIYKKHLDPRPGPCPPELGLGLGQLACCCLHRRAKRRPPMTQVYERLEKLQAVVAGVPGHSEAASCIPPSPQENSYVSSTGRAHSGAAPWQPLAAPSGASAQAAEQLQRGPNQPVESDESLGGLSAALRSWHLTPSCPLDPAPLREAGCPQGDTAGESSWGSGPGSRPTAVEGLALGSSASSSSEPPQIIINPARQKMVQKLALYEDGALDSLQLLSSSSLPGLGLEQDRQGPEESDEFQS
Sequence of Peripheral plasma membrane protein CASK (Homo sapiens) (O14936 whole entry): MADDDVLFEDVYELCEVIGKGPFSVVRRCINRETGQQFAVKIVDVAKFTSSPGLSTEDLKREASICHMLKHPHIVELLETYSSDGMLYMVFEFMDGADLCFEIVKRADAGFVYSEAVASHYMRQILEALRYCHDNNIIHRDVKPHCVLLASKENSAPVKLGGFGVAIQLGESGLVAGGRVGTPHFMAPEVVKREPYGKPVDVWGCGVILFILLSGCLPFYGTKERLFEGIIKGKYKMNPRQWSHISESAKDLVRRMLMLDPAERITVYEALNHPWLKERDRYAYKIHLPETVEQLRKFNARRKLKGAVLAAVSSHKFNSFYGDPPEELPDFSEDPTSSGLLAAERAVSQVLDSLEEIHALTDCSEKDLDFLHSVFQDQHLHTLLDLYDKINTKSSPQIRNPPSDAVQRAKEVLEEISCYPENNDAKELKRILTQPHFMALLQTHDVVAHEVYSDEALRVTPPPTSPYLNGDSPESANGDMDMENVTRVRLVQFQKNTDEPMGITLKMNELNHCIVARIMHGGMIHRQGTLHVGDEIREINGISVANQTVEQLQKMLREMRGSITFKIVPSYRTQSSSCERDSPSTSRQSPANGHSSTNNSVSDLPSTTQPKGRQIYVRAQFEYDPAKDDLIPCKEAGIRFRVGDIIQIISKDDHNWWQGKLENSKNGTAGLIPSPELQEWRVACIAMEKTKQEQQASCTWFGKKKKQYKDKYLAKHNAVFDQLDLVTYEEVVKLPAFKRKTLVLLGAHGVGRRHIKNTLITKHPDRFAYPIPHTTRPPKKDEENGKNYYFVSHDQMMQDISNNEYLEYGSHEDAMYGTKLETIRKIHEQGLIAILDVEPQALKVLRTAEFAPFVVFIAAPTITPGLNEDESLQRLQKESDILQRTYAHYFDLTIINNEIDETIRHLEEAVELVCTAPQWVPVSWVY
Sequence of Cyclin-dependent kinase 13 (Homo sapiens) (Q14004 whole entry, looked up): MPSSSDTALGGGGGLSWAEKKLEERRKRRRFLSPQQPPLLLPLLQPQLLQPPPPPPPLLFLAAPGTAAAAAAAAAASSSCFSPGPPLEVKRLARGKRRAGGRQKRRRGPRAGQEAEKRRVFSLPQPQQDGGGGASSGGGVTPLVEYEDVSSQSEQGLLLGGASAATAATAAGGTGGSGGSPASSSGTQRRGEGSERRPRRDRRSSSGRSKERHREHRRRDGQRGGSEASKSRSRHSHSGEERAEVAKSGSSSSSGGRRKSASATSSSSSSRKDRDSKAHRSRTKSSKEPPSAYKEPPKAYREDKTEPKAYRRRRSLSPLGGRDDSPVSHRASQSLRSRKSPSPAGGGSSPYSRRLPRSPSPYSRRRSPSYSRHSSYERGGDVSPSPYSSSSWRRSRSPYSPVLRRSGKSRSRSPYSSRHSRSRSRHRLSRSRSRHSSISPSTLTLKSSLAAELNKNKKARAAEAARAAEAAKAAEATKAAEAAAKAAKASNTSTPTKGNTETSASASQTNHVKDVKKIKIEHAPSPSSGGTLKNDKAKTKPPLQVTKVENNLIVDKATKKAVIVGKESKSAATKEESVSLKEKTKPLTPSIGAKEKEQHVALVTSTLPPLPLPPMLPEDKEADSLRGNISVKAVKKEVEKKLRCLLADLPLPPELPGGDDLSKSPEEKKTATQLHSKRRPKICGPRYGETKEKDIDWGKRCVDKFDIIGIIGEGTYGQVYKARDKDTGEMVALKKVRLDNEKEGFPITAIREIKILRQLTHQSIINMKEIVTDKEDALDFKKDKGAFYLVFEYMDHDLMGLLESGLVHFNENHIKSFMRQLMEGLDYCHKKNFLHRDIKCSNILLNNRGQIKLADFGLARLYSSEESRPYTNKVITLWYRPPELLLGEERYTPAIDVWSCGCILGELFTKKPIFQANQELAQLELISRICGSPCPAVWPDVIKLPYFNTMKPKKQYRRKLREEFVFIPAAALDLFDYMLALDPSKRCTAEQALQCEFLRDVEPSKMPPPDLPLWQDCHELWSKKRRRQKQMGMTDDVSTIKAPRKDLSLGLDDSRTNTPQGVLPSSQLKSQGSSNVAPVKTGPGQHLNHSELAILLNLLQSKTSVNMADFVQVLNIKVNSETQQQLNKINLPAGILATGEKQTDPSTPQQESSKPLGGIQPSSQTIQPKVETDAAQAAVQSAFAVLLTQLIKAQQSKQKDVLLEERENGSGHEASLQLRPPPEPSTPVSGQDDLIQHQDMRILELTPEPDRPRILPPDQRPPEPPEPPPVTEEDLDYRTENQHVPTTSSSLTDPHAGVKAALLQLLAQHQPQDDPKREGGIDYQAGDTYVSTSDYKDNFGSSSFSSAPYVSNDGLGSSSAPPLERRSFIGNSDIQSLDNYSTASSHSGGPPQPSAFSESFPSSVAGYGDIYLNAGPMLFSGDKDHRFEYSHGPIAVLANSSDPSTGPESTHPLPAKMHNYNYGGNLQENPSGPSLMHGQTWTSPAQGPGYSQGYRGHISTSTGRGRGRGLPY
Sequence of Mitogen-activated protein kinase 15 (Homo sapiens) (Q8TD08 whole entry): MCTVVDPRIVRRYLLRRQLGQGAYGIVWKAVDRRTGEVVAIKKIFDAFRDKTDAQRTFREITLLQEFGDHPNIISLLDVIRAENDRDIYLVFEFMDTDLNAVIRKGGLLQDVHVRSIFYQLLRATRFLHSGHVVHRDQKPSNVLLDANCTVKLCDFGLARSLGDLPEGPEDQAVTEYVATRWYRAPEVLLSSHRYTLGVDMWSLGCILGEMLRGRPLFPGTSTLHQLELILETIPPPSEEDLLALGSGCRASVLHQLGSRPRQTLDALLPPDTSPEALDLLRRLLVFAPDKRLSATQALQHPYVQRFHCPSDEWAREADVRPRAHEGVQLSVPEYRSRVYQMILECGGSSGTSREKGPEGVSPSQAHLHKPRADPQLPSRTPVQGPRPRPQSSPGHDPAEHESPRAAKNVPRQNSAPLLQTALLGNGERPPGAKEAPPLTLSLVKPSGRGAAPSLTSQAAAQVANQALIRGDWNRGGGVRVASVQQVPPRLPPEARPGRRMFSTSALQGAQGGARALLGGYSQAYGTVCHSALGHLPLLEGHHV

## O=C(NC[C@@H]1[C@H]2CN(C(=O)OCc3cc(C(F)(F)F)cc(C(F)(F)F)c3)C[C@@H]12)c1ccc2[nH]nnc2c1 [BI 2545]
[1]
  residual activity: 98%
[2]
  residual activity: 97%
[3]
  residual activity: 100%
[4]
  inhibition: 33.6%
[5]
  residual activity: 89%
[6]
  residual activity: 89%
[7]
  inhibition: 6.75%
[8]
  residual activity: 100%
[9]
  residual activity: 85%
[10]
  residual activity: 100%
[11]
  residual activity: 95%
[12]
  residual activity: 100%
[13]
  residual activity: 90%
[14]
  residual activity: 84%
[15]
  residual activity: 77%
[16]
  residual activity: 87%
[17]
  residual activity: 81%
[18]
  residual activity: 90%
[19]
  residual activity: 85%
[20]
  residual activity: 90%
[21]
  residual activity: 100%
[22]
  residual activity: 77%
[23]
  residual activity: 83%
[24]
  residual activity: 88%
[25]
  residual activity: 90%
[26]
  residual activity: 70%
[27]
  residual activity: 80%
[28]
  residual activity: 100%
[29]
  residual activity: 100%
[30]
  residual activity: 80%
[31]
  inhibition: 19%
[32]
  inhibition: 51.4%
[33]
  residual activity: 96%
[34]
  residual activity: 100%
[35]
  residual activity: 100%
[36]
  inhibition: 13.3%
[37]
  residual activity: 100%
[38]
  residual activity: 44%
[39]
  residual activity: 100%
[40]
  residual activity: 100%
[41]
  residual activity: 98%
[42]
  residual activity: 100%
[43]
  residual activity: 66%
[44]
  residual activity: 86%
[45]
  inhibition: 15.5%

## Cc1nccc(COC(=O)N2C[C@@H]3[C@@H](CNC(=O)c4ccc5[nH]nnc5c4)[C@@H]3C2)n1 [BI 3017]
[1]
  residual activity: 95%
[2]
  residual activity: 78%
[3]
  residual activity: 97%
[4]
  inhibition: 31.8%
[5]
  residual activity: 66%
[6]
  residual activity: 86%
[7]
  inhibition: -0.15%
[8]
  residual activity: 100%
[9]
  residual activity: 82%
[10]
  residual activity: 93%
[11]
  residual activity: 97%
[12]
  residual activity: 100%
[13]
  residual activity: 100%
[14]
  residual activity: 79%
[15]
  residual activity: 90%
[16]
  residual activity: 97%
[17]
  residual activity: 78%
[18]
  residual activity: 82%
[19]
  residual activity: 82%
[20]
  residual activity: 86%
[21]
  residual activity: 97%
[22]
  residual activity: 100%
[23]
  residual activity: 100%
[24]
  residual activity: 79%
[25]
  residual activity: 90%
[26]
  residual activity: 72%
[27]
  residual activity: 94%
[28]
  residual activity: 88%
[29]
  residual activity: 100%
[30]
  residual activity: 94%
[31]
  inhibition: 9.56%
[32]
  inhibition: 7.65%
[33]
  residual activity: 89%
[34]
  residual activity: 100%
[35]
  residual activity: 97%
[36]
  inhibition: 12.4%
[37]
  residual activity: 88%
[38]
  residual activity: 100%
[39]
  residual activity: 98%
[40]
  residual activity: 98%
[41]
  residual activity: 81%
[42]
  residual activity: 91%
[43]
  residual activity: 100%
[44]
  residual activity: 84%
[45]
  inhibition: -7.15%
